The record followed here is US7993916B2, “Methods for increasing definitive endoderm production” (Viacyte, Inc., priority 2007, dated 2011).

This assay concerns hESCs (CyT203 p36). To be noted: EDTA 0.075 mM, PBS−/− wash, about 18 hr, activin A 100 ng/ml and Wnt3a 25 ng/ml, RPMI without FBS. The method, then: Cell cultures and culture conditions were substantially similar to that described above and in D'Amour et al. 2005 and 2006 supra. […] Samples of undifferentiated hESCs were taken prior to the start of the differentiation procedure. Plates were briefly washed with 2 ml of PBS either containing Ca^2+ or Mg^2+ or without Ca^2+ and Mg^2+ (PBS^−/−). In addition, the one plate which was washed with PBS^−/− also received ethylenediamine tetraacetic acid (EDTA) at 0.075 mM to reduce the concentration of Ca^2+ ions present in the media.

As for `O=C(O)CN(CCN(CC(=O)O)CC(=O)O)CC(=O)O` [EDTA, ethylenediamine tetraacetic acid], the “increase in expression for the DE marker (CER)” value was “three-fold” and the “increase in gene expression for mesendoderm markers (BRACH, NODAL)” value is “two-fold”.
